These results are taken from patent US12466817B2, “Pyridine derivative and application thereof” (Nicoya Therapeutics (Shanghai) Co., Ltd, priority 2020, dated 2025).

In general, IC50 refers to the concentration at which inhibition is half-maximal. The half-life is how long it takes for the measured level to halve. A high value points to slow loss. One may read the clearance as the volume of plasma or blood freed of the substance per unit of time. A word on the bioavailability: it is dose-corrected exposure relative to a reference, in per cent. The low end stands for little systemic uptake, the high end for much systemic uptake.

In series [1] the target is T1, CCR5 (Homo sapiens, UniProt P51681).
T1 construct: expressed in transfected cells; host or cells: HEK293, clone C13, passage P4
T1 sequence (P51681 whole entry, species assumed): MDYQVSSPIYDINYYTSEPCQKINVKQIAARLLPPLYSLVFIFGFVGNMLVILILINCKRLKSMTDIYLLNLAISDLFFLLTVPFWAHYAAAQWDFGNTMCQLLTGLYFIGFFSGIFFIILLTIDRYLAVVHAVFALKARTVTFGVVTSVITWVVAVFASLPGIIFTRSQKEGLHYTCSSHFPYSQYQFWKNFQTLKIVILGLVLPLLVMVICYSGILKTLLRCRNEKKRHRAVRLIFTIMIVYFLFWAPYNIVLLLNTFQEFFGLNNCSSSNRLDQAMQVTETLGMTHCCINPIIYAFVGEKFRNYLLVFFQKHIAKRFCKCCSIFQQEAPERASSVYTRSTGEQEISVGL
The series can be described thus: CCR5 FLIPR Calcium assay (intracellular calcium signaling). The series is classed as cell-based. The note with it: HEK293 host cells, clone C13; agonist RANTES; Fluo-4 calcium signal. The protocol: (§1) The inhibitory effects of the compounds on CCR2 and CCR5 receptors were evaluated by detecting intracellular calcium signaling changes by FLIPR Calcium assay, using the IC50 values of the compounds as indicators.
(§2) 1. Cell lines: The cells were seeded and incubated overnight at 37° C. in a 5% CO2 incubator CCR2/CCR5 density: 1 M (20 k/well)
(§3) 2. Reagent: Fluo-4 Direct, (Invitrogen, Cat #F10471)
(§4) The compound was prepared by dissolving in DMSO to a 10 mM solution, and the compound solution was placed in a nitrogen chamber.
(§5) Preparation of probenecid in FLIPR assay buffer: 1 mL of FLIPR assay buffer was added to 77 mg of probenecid to make a 250 mM solution. The solution was prepared every day to keep fresh.
(§6) 2× (8 μM) Fluo-4 Direct™ loading buffer (10 mL of each)
(§7) 0.2 mL of probenecid was added to each 10 mL of Fluo-Direct. The final measured concentration was 2.5 mM MCP-1 was diluted in FLIPR assay buffer 1:2 for 10 spots, starting at 0.5 μM (eventually to […]). RANTES was diluted in FLIPR assay buffer 1:3 for 10 spots, starting at 0.5 μM (eventually to […]). 20 μL of serially diluted compound buffer was added to each well of the DRC plate.
(§8) The standard compound was diluted in DMSO 1:3 for 11 points, starting at 1 mM.
(§9) The test compound was diluted in DMSO 1:3 for 11 spots, starting at 2 mM. 250 nL of compound solution was transferred to cell plates using Echo (Greiner #781946) c) The cell plate was taken from the incubator and 20 μL of 2× Fluo-4 Direct no wash loading buffer was gently dispensed into a 384-well cell culture plate using a pipette. The volume in the final cell plate was 40 μL […]
(§10) d) Incubation was conducted at 37° C. 5% CO2 for 50 minutes, at room temperature for 10 minutes e) The cell plate was taken from the incubator and placed in the FLIPR. The composite plate and pipette tip box were placed in the FLIPR
(§11) 5) The “Max-Min” was calculated from Read 90 to the maximum allowed. EC80 values for each cell line were calculated using FLIPR
(§12) 6) Agonist reference compound at 5 times EC80 concentration was prepared 2) 10 μL of agonist reference compound at 5 times EC80 concentration was transferred from the composite plate to the cell plate.
(§13) 3) Fluorescence signals were read.
(§14) 4) The “Max-Min” was calculated from Read 90 to the maximum allowed h) Data was analyzed by using Prism, the IC50 values of the compounds were calculated.
A general note: A change in cytosolic calcium serves as a functional read-out for many receptors and channels.

The target in series [2] is T2, CYP1A2 (Homo sapiens, UniProt P05177).
T2 construct: from tissue; host or cells: human liver microsomes
T2 sequence (P05177 1-516): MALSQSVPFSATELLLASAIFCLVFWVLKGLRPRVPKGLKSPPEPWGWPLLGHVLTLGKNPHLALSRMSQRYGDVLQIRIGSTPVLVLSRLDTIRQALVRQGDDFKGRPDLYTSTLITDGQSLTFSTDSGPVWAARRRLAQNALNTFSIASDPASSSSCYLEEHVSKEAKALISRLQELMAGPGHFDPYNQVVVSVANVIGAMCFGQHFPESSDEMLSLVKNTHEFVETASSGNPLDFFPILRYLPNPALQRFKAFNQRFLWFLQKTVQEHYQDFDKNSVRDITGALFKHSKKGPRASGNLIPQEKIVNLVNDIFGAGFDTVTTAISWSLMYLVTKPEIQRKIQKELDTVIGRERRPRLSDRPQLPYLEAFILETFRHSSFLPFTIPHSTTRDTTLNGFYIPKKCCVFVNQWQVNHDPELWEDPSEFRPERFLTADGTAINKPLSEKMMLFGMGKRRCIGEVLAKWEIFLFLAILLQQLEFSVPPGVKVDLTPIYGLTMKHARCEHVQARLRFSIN
The series can be described thus: Inhibition of human liver microsomal CYP1A2 activity. It counts as in vitro ADME. To be noted: human liver microsomes, probe substrate phenacetin, NADPH. The protocol:
(§15) A total of five specific probe substrates for the five isozymes of CYP, phenacetin (CYP1A2), diclofenac (CYP2C9), (S′)-mephenytoin (CYP2C19), dextromethorphan ([…]), and midazolam (CYP3A4), were incubated respectively with human liver microsomes and the test compounds, and the reaction was initiated by the addition of reduced nicotinamide adenine dinucleotide phosphate (NADPH), and the samples were treated and the concentrations of the five metabolites produced by the specific substrates, acetaminophen, 4′-hydroxydiclofenac, 4′-hydroxymephenytoin, dextrorphan and 1′-hydroxymidazolam were measured by liquid chromatography tandem mass spectrometry (LC-MS/MS) after the end of the reaction, and the corresponding half maximal inhibitory concentrations (IC50) were calculated.

Series [3] concerns human liver microsomal cytochrome P450 isozymes (CYP1A2, CYP2B6, CYP2C8, CYP2C9, CYP2C19, CYP2D6 and CYP3A4). The series can be described thus: Inhibition of human liver microsomal cytochrome P450 isozymes, overall conclusion. To be noted: human liver microsomes. The series is classed as in vitro ADME. As for the experimental part:
as §15
On the technique in general: Microsomes from liver hold many membrane-bound enzymes, among them those of drug oxidation.

For series [4], the target named is T3, CYP2D6 (Homo sapiens, UniProt P10635).
T3 construct: from tissue; host or cells: human liver microsomes
T3 sequence (P10635 whole entry): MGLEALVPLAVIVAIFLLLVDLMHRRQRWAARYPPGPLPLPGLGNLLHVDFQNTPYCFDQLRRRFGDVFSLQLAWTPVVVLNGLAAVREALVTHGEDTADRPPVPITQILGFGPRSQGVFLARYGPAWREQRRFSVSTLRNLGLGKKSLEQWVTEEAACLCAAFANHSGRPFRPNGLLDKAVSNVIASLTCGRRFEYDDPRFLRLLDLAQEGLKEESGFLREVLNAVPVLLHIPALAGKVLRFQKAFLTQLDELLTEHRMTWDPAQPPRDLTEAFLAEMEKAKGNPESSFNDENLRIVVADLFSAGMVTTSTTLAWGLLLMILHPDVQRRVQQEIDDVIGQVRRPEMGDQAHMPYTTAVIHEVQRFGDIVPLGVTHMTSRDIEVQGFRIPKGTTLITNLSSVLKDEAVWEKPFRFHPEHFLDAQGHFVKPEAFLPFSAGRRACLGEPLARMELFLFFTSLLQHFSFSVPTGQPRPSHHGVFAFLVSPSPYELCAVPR
The series can be described thus: Inhibition of human liver microsomal CYP2D6 activity. The note with it: human liver microsomes, probe substrate dextromethorphan, NADPH. It counts as in vitro ADME. As for the experimental part:
as §15

The target of series [5] is T4, CYP3A4 (Homo sapiens, UniProt P08684).
T4 construct: from tissue; host or cells: human liver microsomes
T4 sequence (P08684 whole entry): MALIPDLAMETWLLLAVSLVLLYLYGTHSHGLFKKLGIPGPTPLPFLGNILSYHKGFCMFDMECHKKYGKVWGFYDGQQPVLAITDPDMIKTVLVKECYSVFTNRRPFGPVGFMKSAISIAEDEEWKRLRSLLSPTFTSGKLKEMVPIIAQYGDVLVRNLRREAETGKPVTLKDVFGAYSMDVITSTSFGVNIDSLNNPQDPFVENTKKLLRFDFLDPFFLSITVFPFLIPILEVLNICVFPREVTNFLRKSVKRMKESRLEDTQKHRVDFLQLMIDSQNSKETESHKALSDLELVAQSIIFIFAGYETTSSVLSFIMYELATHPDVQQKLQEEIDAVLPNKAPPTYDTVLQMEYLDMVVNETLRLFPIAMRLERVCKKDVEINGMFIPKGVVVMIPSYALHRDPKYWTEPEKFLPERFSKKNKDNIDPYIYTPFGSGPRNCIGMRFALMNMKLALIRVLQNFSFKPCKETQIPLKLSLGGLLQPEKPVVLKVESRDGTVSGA
Nature of the series: Inhibition of human liver microsomal CYP3A4 activity. It counts as in vitro ADME. The note with it: human liver microsomes, probe substrate midazolam, NADPH. The protocol:
as §15

The target in series [6] is T5, CYP2C9 (Homo sapiens, UniProt P11712).
T5 construct: from tissue; host or cells: human liver microsomes
T5 sequence (P11712 whole entry): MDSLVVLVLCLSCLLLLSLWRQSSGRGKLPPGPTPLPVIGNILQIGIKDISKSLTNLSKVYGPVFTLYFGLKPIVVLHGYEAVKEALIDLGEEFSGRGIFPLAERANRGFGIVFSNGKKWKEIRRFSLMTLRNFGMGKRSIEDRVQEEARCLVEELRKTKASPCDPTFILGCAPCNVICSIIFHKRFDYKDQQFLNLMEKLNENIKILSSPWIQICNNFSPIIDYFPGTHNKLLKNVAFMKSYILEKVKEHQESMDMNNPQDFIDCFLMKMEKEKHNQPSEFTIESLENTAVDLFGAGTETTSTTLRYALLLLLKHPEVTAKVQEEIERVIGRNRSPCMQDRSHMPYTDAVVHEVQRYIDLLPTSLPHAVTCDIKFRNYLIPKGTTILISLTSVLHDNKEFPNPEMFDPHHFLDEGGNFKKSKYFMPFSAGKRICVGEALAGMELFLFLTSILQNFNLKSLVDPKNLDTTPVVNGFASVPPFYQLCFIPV
Nature of the series: Inhibition of human liver microsomal CYP2C9 activity. The note with it: human liver microsomes, probe substrate diclofenac, NADPH. It counts as in vitro ADME. The protocol:
as §15

Series [7] deals with T6, CYP2C19 (Homo sapiens, UniProt P33261).
T6 construct: from tissue; host or cells: human liver microsomes
T6 sequence (P33261 whole entry): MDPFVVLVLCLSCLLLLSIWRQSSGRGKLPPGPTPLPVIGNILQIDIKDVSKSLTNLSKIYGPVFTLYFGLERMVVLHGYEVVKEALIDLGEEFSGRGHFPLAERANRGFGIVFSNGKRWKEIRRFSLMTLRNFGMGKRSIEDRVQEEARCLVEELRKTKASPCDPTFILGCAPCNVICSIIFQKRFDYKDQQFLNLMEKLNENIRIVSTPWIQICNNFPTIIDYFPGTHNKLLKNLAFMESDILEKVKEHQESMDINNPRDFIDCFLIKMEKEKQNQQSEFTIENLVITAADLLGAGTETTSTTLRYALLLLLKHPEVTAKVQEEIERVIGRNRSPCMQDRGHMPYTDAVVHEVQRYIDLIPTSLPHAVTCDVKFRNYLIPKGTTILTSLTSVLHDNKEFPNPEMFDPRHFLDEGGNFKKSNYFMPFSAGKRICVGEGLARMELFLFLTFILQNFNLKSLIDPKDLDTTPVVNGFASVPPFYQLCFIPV
Nature of the series: Inhibition of human liver microsomal CYP2C19 activity. It counts as in vitro ADME. To be noted: human liver microsomes, probe substrate (S)-mephenytoin, NADPH. As for the experimental part:
as §15

The target in series [8] is T7, CCR2 (Homo sapiens, UniProt P41597).
T7 construct: expressed in transfected cells; host or cells: HEK293, clone C7, passage P6
T7 sequence (P41597 whole entry, species assumed): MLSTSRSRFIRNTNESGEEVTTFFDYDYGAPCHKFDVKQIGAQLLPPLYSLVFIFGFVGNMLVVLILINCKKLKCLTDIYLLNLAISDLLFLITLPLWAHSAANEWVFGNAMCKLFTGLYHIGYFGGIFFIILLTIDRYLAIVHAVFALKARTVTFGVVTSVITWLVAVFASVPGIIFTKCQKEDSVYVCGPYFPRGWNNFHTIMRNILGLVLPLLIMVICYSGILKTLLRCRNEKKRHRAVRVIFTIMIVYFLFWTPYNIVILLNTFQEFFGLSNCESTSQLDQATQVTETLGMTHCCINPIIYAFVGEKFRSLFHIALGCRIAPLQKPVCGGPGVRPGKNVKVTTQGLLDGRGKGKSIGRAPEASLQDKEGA
Nature of the series: CCR2 FLIPR Calcium assay (intracellular calcium signaling). It counts as cell-based. To be noted: HEK293 host cells, clone C7; agonist MCP-1; Fluo-4 calcium signal. As for the experimental part: as §1, §2, §3, §4, §5, §6, §7, §8, §9, §10, §11, §12, §13, §14

Series [9] is described as follows: Comparative pharmacokinetic test in mice. The series is classed as in vivo, C57BL/6 male mice. The protocol:
C57BL/6 male mice were used as test animals in the present study, and the plasma drug concentrations of the test compound WX009 and the reference compound in mice by intravenous administration or oral administration were quantified by LC/MS/MS method at different time points respectively to evaluate the pharmacokinetic characteristics of the two test drugs in mice.
A clarified solution of the test compound was injected via tail vein into C57BL/6 mice (overnight fasting, 7-10 weeks old), and the test compound was given by gavage into C57BL/6 mice (overnight fasting, 7-10 weeks old). Approximately 30 μL of blood was collected from the jugular or tail vein at 0.0833, 0.25, 0.5, 1, 2, 4, 6, 8, and 24 hours after administration, and placed in anticoagulation tubes added with EDTA-K2, then centrifuged at 4° C. for 15 minutes at 3000 g to give the plasma. Plasma drug concentration was determined by LC-MS/MS, and relevant pharmacokinetic parameters were calculated using WinNonlin™ Version 6.3 (Pharsight, Mountain View, CA) pharmacokinetic software with a non-compartmental model linear logarithmic trapezoidal method.

As for `CCCCOCCOc1ccc(-c2ccc3c(c2)C=C(C(=O)Nc2ccc([S+]([O-])Cc4cnc(C)cc4CC)cc2)CCCN3CC2CCOCC2)cc1` (single isomer, unassigned) [WX012], the IC50 in [1] is 8.4 nM; in [2], more than 50 µM; in [4] it was more than 50 µM; in series [5], more than 50 µM; in series [6], 22.6 µM; in [7], 10.1 µM. Besides, the IC50 in [8] worked out at 1.5 nM. In [3], the “Risk of inhibition of human liver microsomal cytochrome P450 isozymes (in words)” value (from here on “Risk of inhibition … (in words)”) is reported as “no risk of inhibition”.
As for `CCCCOCCOc1ccc(-c2ccc3c(c2)C=C(C(=O)Nc2ccc([S+]([O-])Cc4c(CC)ccnc4C)cc2)CCCN3CC2CCCO2)cc1` (single isomer, unassigned) [WX009], the IC50 in series [1] was 4.64 nM; in [2] it was more than 50 µM; in series [4], more than 50 µM; in series [5], 4.6 µM; in series [6] it was more than 50 µM; in series [7], more than 50 µM. In addition, the IC50 in [8] stood at 1.84 nM. Besides, the “Risk of inhibition … (in words)” value in series [3] was “no risk of inhibition”. Further, the half-life in series [9] (male, C57BL/6, mouse, plasma, mice, intravenous injection 2 mg/kg) was 264 min. The clearance in [9] (male, C57BL/6, mouse, plasma, mice, intravenous injection 2 mg/kg, read-out: Plasma clearance rate) came out at 0.46 mL/min/kg. The molecule also came in with a bioavailability in series [9] (male, C57BL/6, mouse, plasma, mice, oral 10 mg/kg) of 8%. The “Plasma clearance rate compared with the reference compound (in words)” value in series [9] (mice, intravenous) is “slower”. In addition, in series [9] (mice, oral), the “Oral plasma systemic exposure (AUC0-inf) relative to the reference compound” value is reported as “approximately six times higher”. In addition, the “Area under the time-concentration curve (0-inf)” value in series [9] (mice, oral 10 mg/kg) was determined as 37.356 µM·h. The molecule also returned a Peak concentration in series [9] (mice, oral 10 mg/kg) of 5.076 µM. The same molecule showed a Peak time in series [9] (mice, oral 10 mg/kg) of 2.0 h. Further, the “Pharmacokinetics compared with the reference compound (in words)” value in series [9] (rodent mice) is “significantly better”.
For the molecule `CCCCOCCOc1ccc(-c2ccc3c(c2)C=C(C(=O)Nc2ccc([S+]([O-])Cc4c(CC)ccnc4C)cc2)CCCN3CC2CCOCC2)cc1` (single isomer, unassigned) [WX007], the IC50 is 5.74 nM in [1]; more than 50 µM in series [2]; more than 50 µM in series [4]; more than 50 µM in series [5]; more than 50 µM in [6]; more than 50 µM in series [7]. For the same molecule, the IC50 in series [8] was determined as 1.96 nM. Further, in series [3], the “Risk of inhibition … (in words)” value is “no risk of inhibition”.
